According to ChEMBL document CHEMBL1156950, “Synthesis and biological evaluation of 4-anilinoquinolines as potent inhibitors of epidermal growth factor receptor” (J Med Chem, 2010):
Calls of active or inactive are those of the source. No cut-off for these calls is given here.

Experiments:
[1] = biological target: T1, Epidermal growth factor receptor (Homo sapiens, UniProt P00533); assay: Inhibition of wild type EGFR by HTRF assay
[2] = biological target: Epidermal growth factor receptor (Homo sapiens, UniProt P00533, L858R); assay: Inhibition of EGFR Leu858Arg mutant by HTRF assay; assay type: protein assay
Sequence of Epidermal growth factor receptor (Homo sapiens, UniProt P00533, L858R) (P00533 25-1210 L858R limits assumed): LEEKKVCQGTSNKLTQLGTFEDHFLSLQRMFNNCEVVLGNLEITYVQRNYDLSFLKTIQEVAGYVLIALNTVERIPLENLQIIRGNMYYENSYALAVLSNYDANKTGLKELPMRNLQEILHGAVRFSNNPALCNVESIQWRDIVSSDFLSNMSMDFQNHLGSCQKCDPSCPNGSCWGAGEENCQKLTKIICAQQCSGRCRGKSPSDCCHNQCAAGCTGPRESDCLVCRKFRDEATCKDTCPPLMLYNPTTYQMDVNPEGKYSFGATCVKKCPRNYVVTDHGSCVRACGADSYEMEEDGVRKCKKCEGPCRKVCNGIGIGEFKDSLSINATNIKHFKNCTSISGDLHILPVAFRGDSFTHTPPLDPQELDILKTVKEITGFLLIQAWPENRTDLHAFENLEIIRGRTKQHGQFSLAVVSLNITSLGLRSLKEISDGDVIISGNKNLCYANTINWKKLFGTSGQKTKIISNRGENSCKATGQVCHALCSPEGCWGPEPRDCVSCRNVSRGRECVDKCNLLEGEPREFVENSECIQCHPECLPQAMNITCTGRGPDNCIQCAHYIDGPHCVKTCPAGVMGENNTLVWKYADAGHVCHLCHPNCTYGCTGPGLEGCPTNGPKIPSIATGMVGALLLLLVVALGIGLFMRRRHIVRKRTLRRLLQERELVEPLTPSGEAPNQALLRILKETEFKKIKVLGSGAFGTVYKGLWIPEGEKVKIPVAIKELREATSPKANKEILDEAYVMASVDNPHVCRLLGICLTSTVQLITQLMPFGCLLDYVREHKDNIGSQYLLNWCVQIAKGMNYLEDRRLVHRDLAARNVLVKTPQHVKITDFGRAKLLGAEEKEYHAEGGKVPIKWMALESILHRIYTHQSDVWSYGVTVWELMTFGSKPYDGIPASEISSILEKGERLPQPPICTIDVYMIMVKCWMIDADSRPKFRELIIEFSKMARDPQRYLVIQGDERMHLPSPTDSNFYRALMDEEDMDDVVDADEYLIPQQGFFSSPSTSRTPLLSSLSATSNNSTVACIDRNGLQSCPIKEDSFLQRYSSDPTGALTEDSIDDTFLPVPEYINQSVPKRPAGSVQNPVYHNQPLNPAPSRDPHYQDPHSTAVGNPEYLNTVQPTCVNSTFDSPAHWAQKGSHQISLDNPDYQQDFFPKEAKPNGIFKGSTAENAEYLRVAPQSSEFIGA

[3] = biological target: Epidermal growth factor receptor (Homo sapiens, UniProt P00533, L858R/T790M); assay: Inhibition of EGFR Leu858Arg and Thr790Met mutant by HTRF assay; assay type: protein assay
Sequence of Epidermal growth factor receptor (Homo sapiens, UniProt P00533, L858R/T790M) (P00533 25-1210 T790M/L858R limits assumed): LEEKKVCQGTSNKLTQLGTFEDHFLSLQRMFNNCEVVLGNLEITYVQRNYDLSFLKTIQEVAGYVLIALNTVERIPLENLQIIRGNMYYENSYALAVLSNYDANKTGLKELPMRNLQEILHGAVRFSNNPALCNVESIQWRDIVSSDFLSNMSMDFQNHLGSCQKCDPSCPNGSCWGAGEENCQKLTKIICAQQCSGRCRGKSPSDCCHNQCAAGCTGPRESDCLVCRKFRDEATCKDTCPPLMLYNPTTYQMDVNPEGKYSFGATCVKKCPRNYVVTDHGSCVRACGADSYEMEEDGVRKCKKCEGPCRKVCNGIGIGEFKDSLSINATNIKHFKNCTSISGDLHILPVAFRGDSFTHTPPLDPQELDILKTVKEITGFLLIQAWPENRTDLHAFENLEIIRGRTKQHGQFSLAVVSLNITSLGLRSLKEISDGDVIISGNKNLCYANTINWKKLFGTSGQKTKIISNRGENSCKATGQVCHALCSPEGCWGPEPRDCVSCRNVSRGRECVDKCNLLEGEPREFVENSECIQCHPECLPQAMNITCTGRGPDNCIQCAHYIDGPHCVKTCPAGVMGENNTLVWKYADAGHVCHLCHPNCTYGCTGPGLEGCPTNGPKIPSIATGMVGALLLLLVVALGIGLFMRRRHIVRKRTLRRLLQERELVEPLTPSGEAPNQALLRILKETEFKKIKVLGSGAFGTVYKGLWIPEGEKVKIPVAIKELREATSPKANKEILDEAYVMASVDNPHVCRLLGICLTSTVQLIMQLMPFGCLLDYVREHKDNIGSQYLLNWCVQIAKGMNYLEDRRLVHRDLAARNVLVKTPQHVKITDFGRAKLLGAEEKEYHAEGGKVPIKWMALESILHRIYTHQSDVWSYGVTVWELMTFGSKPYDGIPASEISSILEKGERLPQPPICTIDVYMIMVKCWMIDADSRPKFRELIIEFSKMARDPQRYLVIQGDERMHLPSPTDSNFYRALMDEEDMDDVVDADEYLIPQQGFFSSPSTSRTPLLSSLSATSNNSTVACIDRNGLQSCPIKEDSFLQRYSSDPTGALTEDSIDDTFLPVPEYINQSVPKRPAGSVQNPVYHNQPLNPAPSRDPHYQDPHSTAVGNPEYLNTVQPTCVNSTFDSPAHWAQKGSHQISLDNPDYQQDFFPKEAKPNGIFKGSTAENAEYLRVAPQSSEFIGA

[4] = cells; conditions: Mus musculus, BaF3, 96 h
Description: Growth inhibition of mouse BA/F3 cells expressing EGFR Del1 mutant after 96 hrs by cell titer-glo assay

[5] = cells; conditions: Mus musculus, BaF3, 96 h; remark: listed apart in the source
Description: Growth inhibition of mouse BA/F3 cells expressing EGFR Del3 mutant after 96 hrs by cell titer-glo assay

[6] = cells; conditions: Mus musculus, BaF3, 96 h; remark: listed apart in the source
Description: Growth inhibition of mouse BA/F3 cells expressing EGFR Del5 mutant after 96 hrs by cell titer-glo assay

[7] = cells; conditions: Mus musculus, BaF3, 96 h; remark: listed apart in the source
[8] = cells; conditions: Mus musculus, BaF3, 96 h; remark: listed apart in the source
Description: Growth inhibition of mouse BA/F3 cells expressing EGFR Del1 and Thr790Met mutant after 96 hrs by cell titer-glo assay

[9] = cells; conditions: Mus musculus, BaF3, 96 h; remark: listed apart in the source
Description: Growth inhibition of mouse BA/F3 cells expressing EGFR Del3 and Thr790Met mutant after 96 hrs by cell titer-glo assay

[10] = cells; conditions: Mus musculus, BaF3, 96 h; remark: listed apart in the source
Description: Growth inhibition of mouse BA/F3 cells expressing EGFR Del5 and Thr790Met mutant after 96 hrs by cell titer-glo assay

[11] = cells; conditions: Mus musculus, BaF3, 96 h; remark: listed apart in the source
[12] = test system: PC-9; assay: Cytotoxicity against human PC9 cells expressing 746-750 sequence deleted EGFR assessed as cell viability at 0.001 to 10 uM after 96 hrs by cell titer-glo assay; assay type: functional, cell-based
[13] = test system: NCI-H1975; assay: Cytotoxicity against human NCI-H1975 cells expressing EGFR T790M and L858R mutant at 0.001 to 10 uM after 96 hrs by cell titer-glo assay; assay type: functional, cell-based
[14] = biological target: T1, Epidermal growth factor receptor; assay: Inhibition of 746-750 sequence deleted EGFR autophosphorylation in human PC9 cells after 24 hrs by immunoblotting; assay type: cell-based; conditions: PC-9

T1 sequence (P00533 whole entry): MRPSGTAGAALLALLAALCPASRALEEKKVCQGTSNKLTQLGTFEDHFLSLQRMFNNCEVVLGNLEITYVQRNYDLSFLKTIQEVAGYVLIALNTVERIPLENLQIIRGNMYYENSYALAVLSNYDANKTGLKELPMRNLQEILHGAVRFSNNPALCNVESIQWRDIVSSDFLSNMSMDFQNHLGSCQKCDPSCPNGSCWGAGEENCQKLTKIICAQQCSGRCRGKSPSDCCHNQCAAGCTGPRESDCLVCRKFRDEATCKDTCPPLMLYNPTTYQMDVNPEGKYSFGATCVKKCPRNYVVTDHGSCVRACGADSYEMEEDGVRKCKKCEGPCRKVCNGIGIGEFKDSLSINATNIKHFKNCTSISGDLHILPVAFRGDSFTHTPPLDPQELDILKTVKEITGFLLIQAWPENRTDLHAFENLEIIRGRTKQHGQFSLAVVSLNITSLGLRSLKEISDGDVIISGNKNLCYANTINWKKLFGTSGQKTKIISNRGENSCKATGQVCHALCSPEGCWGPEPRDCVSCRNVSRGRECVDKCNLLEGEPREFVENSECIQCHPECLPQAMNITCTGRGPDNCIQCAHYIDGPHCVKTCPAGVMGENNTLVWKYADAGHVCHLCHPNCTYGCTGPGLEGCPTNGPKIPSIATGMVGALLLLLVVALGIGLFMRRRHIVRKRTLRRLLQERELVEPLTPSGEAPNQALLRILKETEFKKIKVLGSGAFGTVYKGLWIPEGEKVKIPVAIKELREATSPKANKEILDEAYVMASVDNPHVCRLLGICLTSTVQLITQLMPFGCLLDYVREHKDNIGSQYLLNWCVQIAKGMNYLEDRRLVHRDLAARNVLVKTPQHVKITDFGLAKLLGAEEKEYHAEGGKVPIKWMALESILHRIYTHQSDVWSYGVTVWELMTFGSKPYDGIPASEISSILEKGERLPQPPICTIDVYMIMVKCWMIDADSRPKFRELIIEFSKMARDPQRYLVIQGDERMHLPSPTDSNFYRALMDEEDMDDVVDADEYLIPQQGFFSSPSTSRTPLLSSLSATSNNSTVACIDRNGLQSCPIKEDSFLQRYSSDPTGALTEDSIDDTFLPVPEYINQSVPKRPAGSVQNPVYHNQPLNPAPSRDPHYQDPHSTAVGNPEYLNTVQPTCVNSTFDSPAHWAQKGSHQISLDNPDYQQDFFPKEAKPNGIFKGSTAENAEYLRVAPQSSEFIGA

IC50 [1] | IC50 [2] | IC50 [3] | Activity [14] | SMILES | GI50 [4] | GI50 [5] | GI50 [6] | GI50 [7] | GI50 [8] | GI50 [9] | GI50 [10] | GI50 [11] | Activity [12] | Activity [13]
30 nM | 14 nM | 1500 nM |  | C#Cc1cccc(Nc2ccnc3cc(OCCOC)c(OCCOC)cc23)c1 | < 500 nM | > 500 nM | > 5000 nM | < 500 nM | > 500 nM | > 500 nM | > 5000 nM | > 500 nM |  | 
 |  |  |  | C=CC(=O)Nc1ccc2ncnc(Nc3cccc(Br)c3)c2c1 | < 500 nM | < 500 nM | < 500 nM | < 500 nM | > 500 nM | < 500 nM | < 500 nM | < 500 nM |  | 
< 1 nM | < 1 nM | 3.2 nM | Dose-dependent effect | C=CC(=O)Nc1ccc2nccc(Nc3cccc(Br)c3)c2c1 | < 500 nM | < 500 nM | < 500 nM | < 500 nM | > 500 nM | > 500 nM | > 500 nM | > 500 nM | Active | Active
< 1 nM | < 1 nM | 140 nM |  | C#Cc1cccc(Nc2ncnc3cc(OC)c(OC)cc23)c1 | < 500 nM | < 500 nM | < 500 nM | < 500 nM | > 500 nM | > 5000 nM | > 5000 nM | > 5000 nM |  | 
19 nM | 4 nM | 1500 nM |  | C#Cc1cccc(Nc2ccnc3cc(OC)c(OC)cc23)c1 | < 500 nM | < 500 nM | < 500 nM | < 500 nM | > 5000 nM | > 5000 nM | > 5000 nM | > 5000 nM |  | 
 |  |  |  | CCC(=O)Nc1ccc2nccc(Nc3cccc(Br)c3)c2c1 | < 500 nM | < 500 nM | > 500 nM | > 500 nM | > 500 nM | > 500 nM | > 500 nM | > 500 nM |  | 
 |  |  |  | C#Cc1cccc(Nc2ncnc3cc(OCCOC)c(OCCOC)cc23)c1 [ERLOTINIB] | < 500 nM | < 500 nM | < 500 nM | < 500 nM | > 5000 nM | > 5000 nM | > 5000 nM | > 5000 nM | Active | Active
